This note sets out measurements from BindingDB's records for PubMed 27607900 (Cardiff University, 2016).

The structures appear in SMILES notation.

The nature of experiment [1]: Inhibition of ACT (unknown origin).
Experiment [2] deals with Enterococcus faecalis. The experiment is described as follows: Antimicrobial activity against Enterococcus faecalis ATCC 29212 assessed as microbial growth inhibition.

`CC(C)OC(=O)[C@H](Cc1ccccc1)NP(=O)(N[C@@H](Cc1ccccc1)C(=O)OC(C)C)OCOCCn1cnc2c(N)nc(F)nc21`: the 50% inhibitory concentration (IC50) in experiment [1] was 145 nM. Regarding `CCCC(C)CC(C)CC(C)/C=C(C)/C=C/C(O)C(C)C(=O)OC1C(O)CN2CC1NC[C@H]1O[C@@H](OC([C@H]3O[C@@H](n4ccc(=O)[nH]c4=O)[C@H](O)[C@@H]3OS(=O)(=O)O)C2C(=O)O)[C@H](O)[C@@H]1O` (some centres not stated), in experiment [2], the concentration for half-maximal inhibition (IC50) is 12 nM.

The IC50 is the concentration at which inhibition is half-maximal.
